From article PMC8105722 (The Journal of Experimental Medicine, 2021)

Target: Rv0812 (Mycobacterium tuberculosis, UniProt Q79FW0)
Sequence (Q79FW0 whole entry): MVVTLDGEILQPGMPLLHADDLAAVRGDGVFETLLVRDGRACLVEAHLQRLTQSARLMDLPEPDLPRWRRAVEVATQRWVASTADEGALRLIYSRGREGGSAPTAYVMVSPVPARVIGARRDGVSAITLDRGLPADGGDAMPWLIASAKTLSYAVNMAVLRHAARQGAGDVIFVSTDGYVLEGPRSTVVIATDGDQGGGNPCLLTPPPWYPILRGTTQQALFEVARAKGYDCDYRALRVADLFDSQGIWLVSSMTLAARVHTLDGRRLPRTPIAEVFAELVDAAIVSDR

SMILES: Cc1ncc(COP(=O)(O)O)c(C=O)c1O [PLP]
- X-ray crystal structure (cocrystal with 0.2 mM PLP): PLP was fit into the corresponding electron density
